{"source": "patent US20030134901A1", "about": "“Lipoxin compounds and their use in treating cell proliferative disorders” (priority 1993, published 2003)", "key": {"[1]": {"target": "T1, LTB4 specific binding sites of HL-60 cells (Homo sapiens, UniProt Q15722)", "T1 construct": "endogenous in cells; host or cells: differentiated HL-60 cells, intact", "T1 sequence (Q15722 whole entry)": "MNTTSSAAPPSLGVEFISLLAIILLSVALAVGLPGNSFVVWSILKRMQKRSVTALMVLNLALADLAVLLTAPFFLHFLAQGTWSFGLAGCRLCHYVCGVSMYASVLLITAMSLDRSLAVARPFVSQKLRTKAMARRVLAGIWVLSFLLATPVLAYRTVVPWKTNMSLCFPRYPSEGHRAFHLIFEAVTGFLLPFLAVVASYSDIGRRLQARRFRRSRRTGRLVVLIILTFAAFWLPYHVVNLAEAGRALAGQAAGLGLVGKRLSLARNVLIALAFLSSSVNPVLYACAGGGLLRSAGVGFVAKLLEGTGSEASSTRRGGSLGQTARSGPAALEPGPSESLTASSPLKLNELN", "assay": "3H-LTB4 specific binding to HL-60 cells", "conditions": "competitor 300 nM, differentiated HL-60 cells"}, "[2]": {"test_system": "peripheral blood monocytes", "assay": "LXA4 metabolism by peripheral blood monocytes", "format": "in vitro ADME, human", "conditions": "within 30 s", "description": "(§1) Human PMN were obtained from healthy volunteers by gradient centrifugation of heparinized fresh venous blood (Böyum, A. ([…]) Scand. J. Clin. Lab. Invest. 21:77). HL-60 cells were seeded in RPMI supplemented with penicillin (100 U/ml), streptomycin (100 μ/ml), fetal bovine serum (10%) (Hyclone, Logan, Utah) and incubated (37° C. with 5% CO2 atmosphere) in plastic 250 ml flasks. Individual flasks containing […] HL-60 cells/ml were incubated in the presence or absence of phorbol 12-myristate 13-acetate (PMA) (10 or 16 nM, 24-27 h) and adherence was monitored for induction of macrophage-like phenotype as in Collins, S. J. (1987) Blood 70:1233. […]\n(§2) Incubations with eicosanoids were stopped with cold methanol containing either PGB2 or 5-HETE as internal standards (5-HETE was used when 15-oxo-ETE was quantified). […] Formation of 15-oxo-ETE by 100,000 g supernatants (cf. Agins, A. P. et al. (1987) Agents Actions 21:397; Xun, C-Q. et al.(1991) Biochem. J. 279:553; and Sok, D-E. et al. (1988) Biochem. Biophys. Res. Commun. 156:524) was quantified after RP-HPLC using an ODS column (4.6 mm×25 cm) eluted with methanol/H2O/acetic acid (70:30:0.01, v/v/v) monitored at 280 nm with a flow rate of 1 ml/min. […] On-line spectra were recorded using a diode array detector (Hewlett-Packard 1040M series II) equipped with HPLC^3D ChemStation software (DOS series). […]"}, "15-PGDH": {"target": "T2, 15-PGDH (Homo sapiens, UniProt P15428)", "T2 construct": "100,000 g supernatants prepared from PMA-treated HL-60 cells converted 15-HETE to 15-oxo-ETE; endogenous in cells; host or cells: HL-60 cells treated with PMA (16 nM, 24-72 h); freeze-thaw lysate, 100,000 g supernatant", "T2 sequence (P15428 1-266)": "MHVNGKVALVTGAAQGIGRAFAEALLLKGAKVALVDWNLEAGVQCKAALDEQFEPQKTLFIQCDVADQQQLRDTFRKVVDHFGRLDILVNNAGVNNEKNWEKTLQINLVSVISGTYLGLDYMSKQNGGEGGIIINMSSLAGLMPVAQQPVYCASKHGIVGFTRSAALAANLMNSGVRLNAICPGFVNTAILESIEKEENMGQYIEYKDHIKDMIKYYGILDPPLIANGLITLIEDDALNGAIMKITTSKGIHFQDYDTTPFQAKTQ", "assay": "15-HETE to 15-oxo-ETE dehydrogenase activity of 100,000 g supernatants of PMA-treated HL-60 cells", "format": "biochemical", "description": "as §1, §2"}, "[3]": {"test_system": "Intact neutrophils from peripheral blood", "assay": "LXA4 metabolism by intact neutrophils", "format": "in vitro ADME, human", "conditions": "intact neutrophils of healthy donors", "description": "as §1, §2"}}}
{"smiles": "CCCCC[C@H](O)/C=C/C=C\\C=C\\C=C\\[C@@H](O)[C@@H](O)CCCC(=O)O", "note": "[LXA4, (5S, 6R, 15S)-trihydroxy-7E, 9E, 11Z, 13E-eicosatetraenoic acid]", "values": [{"measurement": "competition with 3H-LTB4 (0.3 nM) binding", "setting": "[1]", "value": "unable to compete"}, {"measurement": "LXA4 converted", "setting": "[2]", "value": "> 60", "unit": "%"}, {"measurement": "Ki", "setting": "15-PGDH; Lineweaver-Burke plots, S.E.M., n=6, read-out: Ki, competition for catalysis of 15-HETE", "value": "8.2 ± 2.6", "unit": "µM"}, {"measurement": "block of 15-oxo-ETE formation", "setting": "15-PGDH; equimolar concentrations of LXA4 and 15-HETE", "value": "≈ 50%"}, {"measurement": "metabolism of exogenous LXA4", "setting": "[3]", "value": "did not significantly metabolize"}]}
